The supplement of paper PMC4862054

Experiments:
Assay in all cases: normalised response (% of control), CellTiter-Glo; higher = more viable cells (100 = DMSO, 0 = benzethonium chloride kill control)
Details in all cases: incubation time: 72 h
BT-474 = tested on: BT-474
Method in brief: (§1)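 Values are normalised signals, each belonging to one concentration of the series. Breast cancer cells (20 µl suspension) were seeded into 384-well plates with compound at 5 concentrations in 10-fold steps over a compound-specific 10,000-fold range and incubated 72 h. Readouts were CellTox Green fluorescence (485/520 nm), then CellTiter-Glo luminescence after 10 min at room temperature, with each plate set to 0.1 % DMSO as 100 and a positive kill control as 0.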

BT-549 = tested on: BT-549
Method in brief: as §1

CAL-120 = tested on: CAL-120
Method in brief: as §1

CAL-148 = tested on: CAL-148
Method in brief: as §1

CAL-51 = tested on: CAL-51
Method in brief: as §1

CAL-85-1 = tested on: CAL-85-1
Method in brief: as §1

DU-4475 [1] = tested on: DU-4475
Method in brief: as §1

HCC1143 = tested on: HCC1143
Method in brief: as §1

HCC1599 = tested on: HCC1599
Method in brief: as §1

HCC1937 = tested on: HCC1937
Method in brief: as §1

HDQ-P1 = tested on: HDQ-P1
Method in brief: as §1

Hs578T = tested on: Hs578T
Method in brief: as §1

MCF-10A [2] = tested on: MCF-10A
Method in brief: as §1

MDA-MB-231 [3] = tested on: MDA-MB-231
Method in brief: as §1

MDA-MB-436 [4] = tested on: MDA-MB-436
Method in brief: as §1

MDA-MB-453 = tested on: MDA-MB-453
Method in brief: as §1

MDA-MB-468 = tested on: MDA-MB-468
Method in brief: as §1

MFM-223 = tested on: MFM-223
Method in brief: as §1

SK-BR-3 = tested on: SK-BR-3
Method in brief: as §1

DU-4475 [5] = tested on: DU-4475; remark: listed apart in the source
Experimental: (§2)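 DSRT, 72 h incubation, CellTox Green / CellTiter-Glo readout. Signal is normalised to DMSO and benzethonium chloride controls. Value is the normalised response at the highest dose.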

MCF-10A [6] = tested on: MCF-10A; remark: listed apart in the source
Experimental: as §2

MDA-MB-231 [7] = tested on: MDA-MB-231; remark: listed apart in the source
Experimental: as §2

MDA-MB-436 [8] = tested on: MDA-MB-436; remark: listed apart in the source
Experimental: as §2

COc1ccc(-c2cc3c(C)nc(N)nc3n([C@H]3CC[C@H](OCCO)CC3)c2=O)cn1 (1000 nM)
normalised response (BT-474): 34.7% | normalised response (BT-549): 17.8% | normalised response (CAL-120): 27% | normalised response (CAL-148): 26.2% | normalised response (CAL-51): 10% | normalised response (CAL-85-1): 20.7% | normalised response (DU-4475 [1]): 48% | normalised response (HCC1143): 21.4% | normalised response (HCC1599): 57.1% | normalised response (HCC1937): 38.7% | normalised response (HDQ-P1): 21.9% | normalised response (Hs578T): 19.3% | normalised response (MCF-10A [2]): 19.5% | normalised response (MDA-MB-231 [3]): 24.7% | normalised response (MDA-MB-436 [4]): 37.5% | normalised response (MDA-MB-453): 12.9% | normalised response (MDA-MB-468): 20.5% | normalised response (MFM-223): 26.2% | normalised response (SK-BR-3): 14.2%

COc1ccc(-c2cc3c(C)nc(N)nc3n([C@H]3CC[C@H](OCCO)CC3)c2=O)cn1 (10000 nM)
normalised response (DU-4475 [5]): 0.26% | normalised response (MCF-10A [6]): 7.97% | normalised response (MDA-MB-231 [7]): 9.59% | normalised response (MDA-MB-436 [8]): 37.1%

O=C(Nc1c[nH]nc1-c1nc2ccc(CN3CCOCC3)cc2[nH]1)NC1CC1 [AT9283] (1000 nM)
normalised response (DU-4475 [5]): 72.4% | normalised response (MCF-10A [6]): 46.2% | normalised response (MDA-MB-231 [7]): 42.4% | normalised response (MDA-MB-436 [8]): 99.5%

COc1cc(CCc2cc(NC(=O)c3ccc(N4CC(C)NC(C)C4)cc3)n[nH]2)cc(OC)c1 (centres undefined) [AZD4547] (100 nM)
normalised response (BT-474): 102% | normalised response (BT-549): 88.4% | normalised response (CAL-120): 80% | normalised response (CAL-148): 104% | normalised response (CAL-51): 91.4% | normalised response (CAL-85-1): 96.2% | normalised response (DU-4475 [1]): 96.9% | normalised response (HCC1143): 93.1% | normalised response (HCC1599): 107% | normalised response (HCC1937): 93.4% | normalised response (HDQ-P1): 104% | normalised response (Hs578T): 88.1% | normalised response (MCF-10A [2]): 86.2% | normalised response (MDA-MB-231 [3]): 106% | normalised response (MDA-MB-436 [4]): 99.2% | normalised response (MDA-MB-453): 90.4% | normalised response (MDA-MB-468): 92.2% | normalised response (MFM-223): 53.1% | normalised response (SK-BR-3): 89.3%

COc1cc(CCc2cc(NC(=O)c3ccc(N4CC(C)NC(C)C4)cc3)n[nH]2)cc(OC)c1 (centres undefined) [AZD4547] (1000 nM)
normalised response (DU-4475 [5]): 94% | normalised response (MCF-10A [6]): 74.9% | normalised response (MDA-MB-231 [7]): 103% | normalised response (MDA-MB-436 [8]): 98%

CCC/C=C/C=C/C(=O)O[C@H]1/C(=C/C(=O)OC)C[C@H]2C[C@H]([C@@H](C)O)OC(=O)C[C@H](O)C[C@@H]3C[C@H](OC(C)=O)C(C)(C)[C@](O)(C[C@@H]4C/C(=C/C(=O)OC)C[C@H](/C=C/C(C)(C)[C@]1(O)O2)O4)O3 [Bryostatin 1] (10 nM)
normalised response (BT-474): 87.2% | normalised response (BT-549): 94.2% | normalised response (CAL-120): 101% | normalised response (CAL-148): 109% | normalised response (CAL-51): 69.1% | normalised response (CAL-85-1): 97.1% | normalised response (DU-4475 [1]): 93.7% | normalised response (HCC1143): 104% | normalised response (HCC1599): 111% | normalised response (HCC1937): 97.8% | normalised response (HDQ-P1): 91.6% | normalised response (Hs578T): 76.9% | normalised response (MCF-10A [2]): 103% | normalised response (MDA-MB-231 [3]): 89.2% | normalised response (MDA-MB-436 [4]): 99.6% | normalised response (MDA-MB-453): 96.8% | normalised response (MDA-MB-468): 100% | normalised response (MFM-223): 108% | normalised response (SK-BR-3): 69.7%

CO[C@@H](C(=O)N1Cc2[nH]nc(NC(=O)c3ccc(N4CCN(C)CC4)cc3)c2C1)c1ccccc1 [Danusertib] (1000 nM)
normalised response (BT-474): 75.6% | normalised response (BT-549): 51.4% | normalised response (CAL-120): 75.7% | normalised response (CAL-148): 72.2% | normalised response (CAL-51): 59.9% | normalised response (CAL-85-1): 90.8% | normalised response (DU-4475 [1]): 83.7% | normalised response (HCC1143): 75.1% | normalised response (HCC1599): 105% | normalised response (HCC1937): 89.3% | normalised response (HDQ-P1): 82.5% | normalised response (Hs578T): 81.6% | normalised response (MCF-10A [2]): 46.2% | normalised response (MDA-MB-231 [3]): 74.7% | normalised response (MDA-MB-436 [4]): 80.9% | normalised response (MDA-MB-453): 156% | normalised response (MDA-MB-468): 33.6% | normalised response (MFM-223): 43.2% | normalised response (SK-BR-3): 91.2%

Cc1nc(Nc2ncc(C(=O)Nc3c(C)cccc3Cl)s2)cc(N2CCN(CCO)CC2)n1 [Dasatinib] (100 nM)
normalised response (BT-474): 54.8% | normalised response (BT-549): 61.7% | normalised response (CAL-120): 57.5% | normalised response (CAL-148): 102% | normalised response (CAL-51): 51.6% | normalised response (CAL-85-1): 61.8% | normalised response (DU-4475 [1]): 100% | normalised response (HCC1143): 67.9% | normalised response (HCC1599): 118% | normalised response (HCC1937): 69.7% | normalised response (HDQ-P1): 35.3% | normalised response (Hs578T): 61.5% | normalised response (MCF-10A [2]): 32.5% | normalised response (MDA-MB-231 [3]): 43.8% | normalised response (MDA-MB-436 [4]): 83.4% | normalised response (MDA-MB-453): 100% | normalised response (MDA-MB-468): 75.4% | normalised response (MFM-223): 88.5% | normalised response (SK-BR-3): 104%

Cc1c(CN2CCN(C(=O)[C@H](C)O)CC2)sc2c(N3CCOCC3)nc(-c3cnc(N)nc3)nc12 [GDC-0980] (1000 nM)
normalised response (BT-474): 57% | normalised response (BT-549): 36.4% | normalised response (CAL-120): 46.8% | normalised response (CAL-148): 35.9% | normalised response (CAL-51): 30.9% | normalised response (CAL-85-1): 37.5% | normalised response (DU-4475 [1]): 75.9% | normalised response (HCC1143): 45.7% | normalised response (HCC1599): 85.5% | normalised response (HCC1937): 70.8% | normalised response (HDQ-P1): 35.2% | normalised response (Hs578T): 41.9% | normalised response (MCF-10A [2]): 39.2% | normalised response (MDA-MB-231 [3]): 52% | normalised response (MDA-MB-436 [4]): 59.3% | normalised response (MDA-MB-453): 20.4% | normalised response (MDA-MB-468): 54.4% | normalised response (MFM-223): 35.8% | normalised response (SK-BR-3): 21.6%

Nc1cccc2c1CN(C1CCC(=O)NC1=O)C2=O (centres undefined) [Lenalidomide] (1000 nM)
normalised response (BT-474): 97.7% | normalised response (BT-549): 97.6% | normalised response (CAL-120): 93.8% | normalised response (CAL-148): 98.2% | normalised response (CAL-51): 99% | normalised response (CAL-85-1): 108% | normalised response (DU-4475 [1]): 102% | normalised response (HCC1143): 101% | normalised response (HCC1599): 116% | normalised response (HCC1937): 100% | normalised response (HDQ-P1): 101% | normalised response (Hs578T): 104% | normalised response (MCF-10A [2]): 103% | normalised response (MDA-MB-231 [3]): 105% | normalised response (MDA-MB-436 [4]): 99.9% | normalised response (MDA-MB-453): 87.1% | normalised response (MDA-MB-468): 111% | normalised response (MFM-223): 97.6% | normalised response (SK-BR-3): 101%

C[C@]12O[C@H](C[C@]1(O)CO)n1c3ccccc3c3c4c(c5c6ccccc6n2c5c31)CNC4=O [Lestaurtinib] (100 nM)
normalised response (BT-474): 83.6% | normalised response (BT-549): 76.1% | normalised response (CAL-120): 62.8% | normalised response (CAL-148): 83.9% | normalised response (CAL-51): 83.8% | normalised response (CAL-85-1): 94.9% | normalised response (DU-4475 [1]): 74.1% | normalised response (HCC1143): 79.4% | normalised response (HCC1599): 67.2% | normalised response (HCC1937): 91% | normalised response (HDQ-P1): 95.8% | normalised response (Hs578T): 80.2% | normalised response (MCF-10A [2]): 62.3% | normalised response (MDA-MB-231 [3]): 92.1% | normalised response (MDA-MB-436 [4]): 86% | normalised response (MDA-MB-453): 64.4% | normalised response (MDA-MB-468): 49.7% | normalised response (MFM-223): 80.9% | normalised response (SK-BR-3): 62.4%
